Reference: ChEMBL document CHEMBL2074407, “Identification of thyroid hormone transporters” (Biochem Biophys Res Commun, 1999)
Counter-ions that a name gives are not always drawn.

Columns and labels:
[1] = molecular target: T1, Solute carrier organic anion transporter family member 1A1 (Rattus norvegicus, UniProt P46720); assay: (§1) TP_TRANSPORTER: uptake in Xenopus laevis oocytes; type: functional, cell-based; settings: oocyte
T1 sequence (P46720 whole entry): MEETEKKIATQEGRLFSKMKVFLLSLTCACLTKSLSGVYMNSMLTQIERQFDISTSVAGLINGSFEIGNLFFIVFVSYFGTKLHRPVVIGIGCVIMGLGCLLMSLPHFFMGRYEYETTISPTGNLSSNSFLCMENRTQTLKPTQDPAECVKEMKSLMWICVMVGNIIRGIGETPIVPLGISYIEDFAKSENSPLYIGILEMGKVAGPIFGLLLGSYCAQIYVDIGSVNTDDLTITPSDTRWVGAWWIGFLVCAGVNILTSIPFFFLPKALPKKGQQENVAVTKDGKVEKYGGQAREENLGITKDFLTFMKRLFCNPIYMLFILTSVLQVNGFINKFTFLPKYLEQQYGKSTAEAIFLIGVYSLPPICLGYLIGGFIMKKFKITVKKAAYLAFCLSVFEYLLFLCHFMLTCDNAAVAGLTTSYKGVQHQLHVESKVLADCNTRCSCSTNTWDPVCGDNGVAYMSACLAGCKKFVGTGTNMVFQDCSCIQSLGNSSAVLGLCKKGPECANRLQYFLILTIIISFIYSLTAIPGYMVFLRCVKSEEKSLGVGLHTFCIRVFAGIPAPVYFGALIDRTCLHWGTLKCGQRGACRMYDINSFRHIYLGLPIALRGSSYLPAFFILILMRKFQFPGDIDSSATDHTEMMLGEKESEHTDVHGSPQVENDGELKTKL

[2] = molecular target: T2, Hepatic sodium/bile acid cotransporter (Rattus norvegicus, UniProt P26435); assay: as §1; type: functional, cell-based; settings: oocyte
T2 sequence (P26435 whole entry): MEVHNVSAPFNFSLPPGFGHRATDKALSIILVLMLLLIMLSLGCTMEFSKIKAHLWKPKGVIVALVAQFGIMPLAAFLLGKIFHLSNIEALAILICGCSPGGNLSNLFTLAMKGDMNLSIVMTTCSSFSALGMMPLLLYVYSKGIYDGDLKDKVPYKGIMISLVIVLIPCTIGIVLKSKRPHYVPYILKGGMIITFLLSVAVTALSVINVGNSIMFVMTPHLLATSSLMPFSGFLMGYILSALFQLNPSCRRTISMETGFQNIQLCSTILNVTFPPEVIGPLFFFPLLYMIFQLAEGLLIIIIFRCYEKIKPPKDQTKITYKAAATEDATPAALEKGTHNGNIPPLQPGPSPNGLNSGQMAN

Row | Structure (SMILES) | Activity [1] | Activity [2]
1 | NC(Cc1cc(I)c(Oc2cc(I)c(OS(=O)(=O)O)c(I)c2)c(I)c1)C(=O)O (stereo not drawn) [THYROXINE SULFATE] | substrate [+] | substrate [+]
2 | N[C@@H](Cc1cc(I)c(Oc2cc(I)c(O)c(I)c2)c(I)c1)C(=O)O [LEVOTHYROXINE] | substrate [+] | substrate [+]
3 | NC(Cc1ccc(Oc2ccc(O)c(I)c2)c(I)c1)C(=O)O (stereo not drawn) [DIIODOTHYRONINE] | substrate [+] | substrate [+]
4 | NS(=O)(=O)O.N[C@@H](Cc1cc(I)c(Oc2ccc(O)c(I)c2)c(I)c1)C(=O)O [TRIIODOTHYRONINE SULFAMATE] | substrate [+] | 
5 | N[C@@H](Cc1ccc(Oc2cc(I)c(O)c(I)c2)c(I)c1)C(=O)O [REVERSE TRIIODOTHYRONINE] | substrate [+] | substrate [+]
6 | NC(Cc1ccc(Oc2ccc(OS(=O)(=O)O)c(I)c2)c(I)c1)C(=O)O (stereo not drawn) [DIIODOTHYRONINE SULFATE] | substrate [+] | substrate [+]
7 | N[C@@H](Cc1ccc(Oc2cc(I)c(O)c(I)c2)c(I)c1)C(=O)O.O=S(=O)(O)O [REVERSE TRIIODOTHYRONINE(RT3) SULFATE] | substrate [+] | substrate [+]
8 | NS(=O)(=O)O.N[C@@H](Cc1cc(I)c(Oc2cc(I)c(O)c(I)c2)c(I)c1)C(=O)O [THYROXINE SULFAMATE] | substrate [+] | 
9 | N[C@@H](Cc1cc(I)c(Oc2ccc(OS(=O)(=O)O)c(I)c2)c(I)c1)C(=O)O [TRIIODOTHYRONINE SULFATE] | substrate [+] | substrate [+]
10 | N[C@@H](Cc1cc(I)c(Oc2ccc(O)c(I)c2)c(I)c1)C(=O)O [LIOTHYRONINE] | substrate [+] | substrate [+]
